Structures are written as SMILES. “Also recorded” adds a separate entry of the source. Where a SMILES comes first, the peptide text is derived from it.

Assay [1] relates to primary lung endothelial cells. The assay can be described thus: MTT proliferation assay, primary lung endothelial cells. Type of assay: cell-based, human. Conditions: peptide 4.5 μM; day 3, 7 and 9; n=5 cell lines. Here is the method:
Human pulmonary endothelial cells were isolated from bronchial tissue obtained during lung transplantation. Blood vessels were dissected free from surrounding tissue and cut longitudinally and then cut into approximately 5 mm segments. Blood vessel segments were then placed in a 15 ml falcon tube containing 10 ml of digestive buffer, (1 mg (250 U)/ml type 2 collagenase, 1 U/ml dispase, 10 mg/ml BSA) the tube was placed in the incubator for 10 minutes and agitated every 2 minutes. Digestive mixture was changed every 10 minutes for a total of 50 minutes. 1/10 volume of FBS was added to the supernantants that were removed every 10 minutes. Supernatants were then centrifuged at 200 g for 5 minutes. Supernantants were removed and cells were washed with culture medium, this contained 10% FBS, 10 μg/ml endothelial cell growth supplement, 20 U/ml heparin and 2% antibiotics, and centrifuged at 200 g for 5 minutes. Supernantants were removed and cells were placed in 75 cm^2 vented tissue culture flasks (Falcon Labware) containing 10 ml of culture medium, and incubated for 1 hour at 37° C. […] Proliferation was assessed using an MTT assay (SIGMA-aldrich, Missouri, USA) at day 3, 7 and 9. […] The specific absorption of each well was measured at 690 nm (reference) and 570 nm.
A general note: Tetrazolium dyes change colour on reduction, which living cells bring about.

Assay [2] has as its system asthmatic smooth muscle cells. The assay can be described thus: MTT proliferation assay, asthmatic airway smooth muscle cells. The format is cell-based, human. Conditions: peptide 4.5 μM; all timepoints of FIG. 11; n=4 ASM cell lines. From the text:
Human airway smooth muscle cells were isolated by microdissection from bronchial tissue obtained from either bronchoscopy, lung tissue obtained from lung transplants, or lung tissue resected at thoracotomy. Ethical approval for the use of the lung tissue for/in vitro/experimentation was granted by the Human Ethics Committee of the University of Sydney, and the Sydney South West Area Health Service, and informed consent was received from all subjects. Asthmatic ASM cells were isolated from airway biopsies, and all but one of the non asthmatic derived ASM cells were isolated from either resected lung tissue, or lung transplantation (both donor and recipient) This isolation and culture of ASM cells was carried out according to a method described by Johnson et al. 1995. Briefly, with the use of a dissecting microscope, sterile equipment and aseptic technique, bronchial airways were dissected from the surrounding parenchyma and cut longitudinally. The bronchi were then briefly dipped in 70% (v/v) ethanol in water to kill any surface organisms. The bronchi were then washed in sterile Hanks balanced salt solution three times and pinned down in a sterile Petri dish with the epithelial surface facing upwards. […] Proliferation was assessed using an MTT assay (SIGMA-aldrich, Missouri, USA) at day 3, 7 and 9. […] The specific absorption of each well was measured at 690 nm (reference) and 570 nm.

As to `CSCC[C@H](NC(=O)[C@@H](NC(=O)[C@@H](NC(=O)[C@H](Cc1ccccc1)NC(=O)[C@H](CCCNC(=N)N)NC(=O)[C@H](CCC(N)=O)NC(=O)[C@@H](N)CC(C)C)[C@@H](C)O)[C@@H](C)O)C(=O)N1CCC[C@H]1C(=O)N[C@@H](Cc1ccccc1)C(=O)N[C@@H](CC(C)C)C(=O)N[C@@H](Cc1ccccc1)C(=O)N[C@@H](CS)C(=O)N[C@@H](CC(N)=O)C(=O)N[C@H](C(=O)N[C@@H](CC(N)=O)C(=O)N[C@@H](CC(=O)O)C(=O)N[C@H](C(=O)N[C@@H](CS)C(=O)N[C@@H](CC(N)=O)C(=O)N[C@@H](Cc1ccccc1)C(=O)O)C(C)C)C(C)C` [T3] (H-LQRFTTMPFLFCNVNDVCNF-OH; N-terminus and C-terminus assumed), the “inhibition of proliferation of primary lung endothelial cells” value in assay [1] is listed as “able to inhibit the proliferation; also recorded: significantly inhibited by the presence of T3 peptide at all timepoints”. In addition, the “inhibition of FBS-induced proliferation of asthmatic smooth muscle cells” value in assay [2] is reported as “Neither T3 nor T7 peptides were shown to be able to inhibit; also recorded: not inhibited”.
Regarding `CSCC[C@H](NC(=O)[C@@H](N)[C@@H](C)O)C(=O)N1CCC[C@H]1C(=O)N[C@@H](Cc1ccccc1)C(=O)N[C@@H](CC(C)C)C(=O)N[C@@H](Cc1ccccc1)C(=O)N[C@@H](CS)C(=O)N[C@@H](CC(N)=O)C(=O)N[C@H](C(=O)N[C@@H](CC(N)=O)C(=O)N[C@@H](CC(=O)O)C(=O)N[C@H](C(=O)N[C@@H](CS)C(=O)N[C@@H](CC(N)=O)C(=O)N[C@@H](Cc1ccccc1)C(=O)N[C@@H](C)C(=O)N[C@@H](CO)C(=O)N[C@@H](CCCNC(=N)N)C(=O)N[C@@H](CC(N)=O)C(=O)N[C@@H](CC(=O)O)C(=O)N[C@@H](Cc1ccc(O)cc1)C(=O)N[C@@H](CO)C(=O)N[C@@H](Cc1ccc(O)cc1)C(=O)N[C@@H](Cc1c[nH]c2ccccc12)C(=O)N[C@@H](CC(C)C)C(=O)O)C(C)C)C(C)C` [T7] (H-TMPFLFCNVNDVCNFASRNDYSYWL-OH; N-terminus and C-terminus assumed), in assay [1], the “inhibition of proliferation of primary lung endothelial cells” value was “able to inhibit the proliferation; also recorded: inhibited proliferation at both day 7 and day 9”. Besides, in assay [2], the “inhibition of FBS-induced proliferation of asthmatic smooth muscle cells” value is “Neither T3 nor T7 peptides were shown to be able to inhibit; also recorded: not inhibited”.
